Measured values published in PubChem BioAssay (NCI).
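48-hour exposure; five concentrations; linearly interpolated endpoints. GI50 = concentration required for 50% inhibition of growth. At the TGI there is no net growth.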

Assays:
Test in all cases: NCI anticancer screen, dose series, 48 h
786-0 renal = tested on: 786-0 renal
A498 renal = tested on: A498 renal
A549 NSCLC = tested on: A549 NSCLC
ACHN renal = tested on: ACHN renal
BT-549 breast = tested on: BT-549 breast
CAKI-1 renal = tested on: CAKI-1 renal
CCRF-CEM leukemia = tested on: CCRF-CEM leukemia
COLO 205 colon = tested on: COLO 205 colon
DU-145 prostate = tested on: DU-145 prostate
EKVX NSCLC = tested on: EKVX NSCLC
HCC-2998 colon = tested on: HCC-2998 colon
HCT-116 colon = tested on: HCT-116 colon
HCT-15 colon = tested on: HCT-15 colon
HL-60(TB) leukemia = tested on: HL-60(TB) leukemia
HOP-62 NSCLC = tested on: HOP-62 NSCLC
HOP-92 NSCLC = tested on: HOP-92 NSCLC
HS 578T breast = tested on: HS 578T breast
HT29 colon = tested on: HT29 colon
IGROV1 ovarian = tested on: IGROV1 ovarian
K-562 leukemia = tested on: K-562 leukemia
KM12 colon = tested on: KM12 colon
LOX IMVI melanoma = tested on: LOX IMVI melanoma
M14 melanoma = tested on: M14 melanoma
MCF7 breast = tested on: MCF7 breast
MDA-MB-231 breast = tested on: MDA-MB-231 breast
MOLT-4 leukemia = tested on: MOLT-4 leukemia
NCI-H226 lung = tested on: NCI-H226 lung
NCI-H23 lung = tested on: NCI-H23 lung
NCI-H460 lung = tested on: NCI-H460 lung
NCI/ADR-RES ovarian = tested on: NCI/ADR-RES ovarian
OVCAR-3 ovarian = tested on: OVCAR-3 ovarian
OVCAR-4 ovarian = tested on: OVCAR-4 ovarian
OVCAR-5 ovarian = tested on: OVCAR-5 ovarian
OVCAR-8 ovarian = tested on: OVCAR-8 ovarian
PC-3 prostate = tested on: PC-3 prostate
RPMI-8226 leukemia = tested on: RPMI-8226 leukemia
RXF 393 renal = tested on: RXF 393 renal
SF-268 CNS = tested on: SF-268 CNS
SF-295 CNS = tested on: SF-295 CNS
SF-539 CNS = tested on: SF-539 CNS
SK-MEL-2 melanoma = tested on: SK-MEL-2 melanoma
SK-MEL-28 melanoma = tested on: SK-MEL-28 melanoma
SK-MEL-5 melanoma = tested on: SK-MEL-5 melanoma
SK-OV-3 ovarian = tested on: SK-OV-3 ovarian
SN12C renal = tested on: SN12C renal
SNB-19 CNS = tested on: SNB-19 CNS
SNB-75 CNS = tested on: SNB-75 CNS
SR leukemia = tested on: SR leukemia
SW-620 colon = tested on: SW-620 colon
T-47D breast = tested on: T-47D breast
TK-10 renal = tested on: TK-10 renal
U251 CNS = tested on: U251 CNS
UACC-257 melanoma = tested on: UACC-257 melanoma
UACC-62 melanoma = tested on: UACC-62 melanoma
UO-31 renal = tested on: UO-31 renal

c1ccc(CC(Cc2ccccc2)C2=NCCCN2)cc1
GI50 (786-0 renal): 4.26 µM
TGI (786-0 renal): > 100 µM
GI50 (A498 renal): 1.84 µM
TGI (A498 renal): 33.2 µM
GI50 (A549 NSCLC): 3.42 µM
TGI (A549 NSCLC): > 100 µM
GI50 (ACHN renal): 7.95 µM
TGI (ACHN renal): > 100 µM
GI50 (BT-549 breast): 3.77 µM
TGI (BT-549 breast): 70.9 µM
GI50 (CAKI-1 renal): 6.39 µM
TGI (CAKI-1 renal): > 100 µM
GI50 (CCRF-CEM leukemia): 3.12 µM
TGI (CCRF-CEM leukemia): 93.3 µM
GI50 (COLO 205 colon): 3.49 µM
TGI (COLO 205 colon): 12.4 µM
GI50 (DU-145 prostate): 3.36 µM
TGI (DU-145 prostate): 9.75 µM
GI50 (EKVX NSCLC): 6.96 µM
TGI (EKVX NSCLC): > 100 µM
GI50 (HCC-2998 colon): 3.08 µM
TGI (HCC-2998 colon): 9.35 µM
GI50 (HCT-116 colon): 3.71 µM
TGI (HCT-116 colon): 17.3 µM
GI50 (HCT-15 colon): 3.44 µM
TGI (HCT-15 colon): > 100 µM
GI50 (HL-60(TB) leukemia): 2.38 µM
TGI (HL-60(TB) leukemia): 6.41 µM
GI50 (HOP-62 NSCLC): 4.83 µM
TGI (HOP-62 NSCLC): > 100 µM
GI50 (HOP-92 NSCLC): 4.52 µM
TGI (HOP-92 NSCLC): 64.6 µM
GI50 (HS 578T breast): 4.07 µM
TGI (HS 578T breast): > 100 µM
GI50 (HT29 colon): 3.48 µM
TGI (HT29 colon): > 100 µM
GI50 (IGROV1 ovarian): 4.2 µM
TGI (IGROV1 ovarian): > 100 µM
GI50 (K-562 leukemia): 4.04 µM
TGI (K-562 leukemia): > 100 µM
GI50 (KM12 colon): 3.26 µM
TGI (KM12 colon): > 100 µM
GI50 (LOX IMVI melanoma): 3.71 µM
TGI (LOX IMVI melanoma): 23.6 µM
GI50 (M14 melanoma): 3.17 µM
TGI (M14 melanoma): > 100 µM
GI50 (MCF7 breast): 3.57 µM
TGI (MCF7 breast): > 100 µM
GI50 (MDA-MB-231 breast): 5.37 µM
TGI (MDA-MB-231 breast): > 100 µM
GI50 (MOLT-4 leukemia): 3.56 µM
TGI (MOLT-4 leukemia): 23.2 µM
GI50 (NCI-H226 lung): 2.48 µM
TGI (NCI-H226 lung): 7.47 µM
GI50 (NCI-H23 lung): 3.48 µM
TGI (NCI-H23 lung): > 100 µM
GI50 (NCI-H460 lung): 3.36 µM
TGI (NCI-H460 lung): 21.9 µM
GI50 (NCI/ADR-RES ovarian): 2.99 µM
TGI (NCI/ADR-RES ovarian): > 100 µM
GI50 (OVCAR-3 ovarian): 2.42 µM
TGI (OVCAR-3 ovarian): 4.97 µM
GI50 (OVCAR-4 ovarian): 3.93 µM
TGI (OVCAR-4 ovarian): > 100 µM
GI50 (OVCAR-5 ovarian): 5.95 µM
TGI (OVCAR-5 ovarian): > 100 µM
GI50 (OVCAR-8 ovarian): 3.21 µM
TGI (OVCAR-8 ovarian): > 100 µM
GI50 (PC-3 prostate): 3.87 µM
TGI (PC-3 prostate): > 100 µM
GI50 (RPMI-8226 leukemia): 3.62 µM
TGI (RPMI-8226 leukemia): 42.3 µM
GI50 (RXF 393 renal): 2.82 µM
TGI (RXF 393 renal): > 100 µM
GI50 (SF-268 CNS): 5.25 µM
TGI (SF-268 CNS): > 100 µM
GI50 (SF-295 CNS): 3.32 µM
TGI (SF-295 CNS): > 100 µM
GI50 (SF-539 CNS): 3.37 µM
TGI (SF-539 CNS): > 100 µM
GI50 (SK-MEL-2 melanoma): 2.66 µM
TGI (SK-MEL-2 melanoma): 7.91 µM
GI50 (SK-MEL-28 melanoma): 6.4 µM
TGI (SK-MEL-28 melanoma): > 100 µM
GI50 (SK-MEL-5 melanoma): 2.73 µM
TGI (SK-MEL-5 melanoma): 9.52 µM
GI50 (SK-OV-3 ovarian): 2.1 µM
TGI (SK-OV-3 ovarian): 6.44 µM
GI50 (SN12C renal): 4.18 µM
TGI (SN12C renal): > 100 µM
GI50 (SNB-19 CNS): 3.49 µM
TGI (SNB-19 CNS): > 100 µM
GI50 (SNB-75 CNS): 7.8 µM
TGI (SNB-75 CNS): > 100 µM
GI50 (SR leukemia): 3.78 µM
TGI (SR leukemia): > 100 µM
GI50 (SW-620 colon): 3.94 µM
TGI (SW-620 colon): > 100 µM
GI50 (T-47D breast): 30.8 µM
TGI (T-47D breast): > 100 µM
GI50 (TK-10 renal): 7.57 µM
TGI (TK-10 renal): > 100 µM
GI50 (U251 CNS): 3.38 µM
TGI (U251 CNS): > 100 µM
GI50 (UACC-257 melanoma): 17 µM
TGI (UACC-257 melanoma): > 100 µM
GI50 (UACC-62 melanoma): 4.22 µM
TGI (UACC-62 melanoma): > 100 µM
GI50 (UO-31 renal): 7.83 µM
TGI (UO-31 renal): > 100 µM
